Laboratory results from EPA's ToxRefDB 2.

Assays:
[1] = test system: rat; details: Prenatal developmental toxicity study, wistar, Inhalation, Whole-Body, dose end: 15 GD
[2] = test system: rat; details: Subchronic inhalation toxicity, sprague dawley, Whole-Body, dose end: 13 week, group: systemic
[3] = test system: rabbit; details: Prenatal developmental toxicity study, new zealand white, Inhalation, Whole-Body, dose end: 18 GD
[4] = test system: mouse; details: Subchronic oral toxicity in rodents, b6c3f1, Water, dose end: 13 week
[5] = test system: rabbit; details: Subchronic inhalation toxicity, new zealand white, Whole-Body, dose end: 13 week, group: systemic
[6] = test system: rat; details: Carcinogenicity, fischer, Oral, Gavage/Intubation, dose end: 2 year, group: systemic
[7] = test system: rabbit; details: Prenatal developmental toxicity study; dutch; Inhalation; Whole-Body; dose end: 18 GD; group: developmental; developmental / developmental malformation / bone / incomplete ossification + developmental / developmental malformation / bone / …
[8] = test system: rat; details: Prenatal developmental toxicity study, wistar, Inhalation, Whole-Body, dose end: 19 GD
[9] = test system: rat; details: Subchronic oral toxicity in rodents, fischer, Water, dose end: 13 week
[10] = test system: rat; details: Prenatal developmental toxicity study, wistar, Inhalation, Whole-Body, dose end: 19 GD; remark: listed apart in the source
[11] = test system: mouse; details: Carcinogenicity, b6c3f1, Oral, Gavage/Intubation, dose end: 2 year, group: systemic
[12] = test system: rat; details: Combined chronic toxicity/carcinogenicity; sprague dawley; Oral; Feed; dose end: 104 week; group: systemic; systemic / clinical chemistry / alanine aminotransferase (alt/sgpt) / alanine aminotransferase (alt/sgpt) + systemic / clinical chemistry / …
[13] = test system: mouse; details: Subchronic oral toxicity in rodents, cd1, Feed, dose end: 13 week, group: systemic
[14] = test system: rat; details: Subchronic oral toxicity in rodents, sprague dawley, Feed, dose end: 13 week, group: systemic
[15] = test system: mouse; details: Carcinogenicity; cd1; Oral; Feed; dose end: 78 week; group: systemic; systemic / organ weight / liver / nos + systemic / organ weight / liver / relative to body weight + systemic / pathology microscopic / liver…
[16] = test system: rat; details: Prenatal developmental toxicity study, sprague dawley, Oral, Gavage/Intubation, dose end: 19 GD
[17] = test system: rat; details: Multigenerational reproductive toxicity study, Charles River CD, Oral, Feed, dose end: 2 generation
[18] = test system: dog; details: Chronic toxicity, beagle, Oral, Feed, dose end: 52 week, group: systemic
[19] = test system: mouse; details: Subchronic oral toxicity in rodents, other, Feed, dose end: 90 day, group: systemic
[20] = test system: rat; details: Subchronic oral toxicity in rodents, sprague dawley, Feed, dose end: 90 day, group: systemic
[21] = test system: dog; details: Chronic toxicity, beagle, Oral, Feed, dose end: 52 week, group: systemic; remark: listed apart in the source
[22] = test system: mouse; details: Combined chronic toxicity/carcinogenicity; Oral; Feed; dose end: 104 week; group: systemic; systemic / in life observation / water consumption / water consumption + systemic / pathology gross / full gross necropsy / abdominal cavity…
[23] = test system: dog; details: Subchronic oral toxicity in nonrodent, beagle, Feed, dose end: 90 day, group: systemic
[24] = group: developmental, systemic / in life observation / body weight / litter weight
[25] = group: developmental, systemic / in life observation / body weight / litter weight + developmental / developmental malformation / bone / incomplete ossification…
[26] = group: maternal, reproductive / reproductive performance / preimplantation loss / preimplantation loss + reproductive / offspring survival early / live …
[27] = systemic / organ weight / spleen / absolute + systemic / organ weight / spleen / relative to body weight
[28] = systemic / organ weight / spleen / absolute + systemic / organ weight / spleen / relative to body weight + systemic / clinical chemistry / …
[29] = group: developmental, developmental / developmental malformation / bone / supernumerary + developmental / developmental malformation / heart / [other] + …
[30] = group: maternal, reproductive / reproductive performance / resorptions / resorptions + systemic / in life observation / body weight / body weight gain + …
[31] = group: maternal, reproductive / reproductive performance / resorptions / resorptions + systemic / in life observation / food consumption / food consumption…
[32] = group: maternal, reproductive / reproductive performance / estrous cycle / length
[33] = group: systemic, systemic / in life observation / body weight / body weight gain + systemic / organ weight / testes / absolute + systemic / pathology gross…
[34] = systemic / clinical chemistry / cholesterol / cholesterol
[35] = systemic / clinical chemistry / cholesterol / cholesterol + systemic / hematology / erythrocyte (rbc) count differential / erythrocyte (rbc…
[36] = systemic / in life observation / body weight / body weight
[37] = systemic / in life observation / body weight / body weight + systemic / pathology gross / adrenal gland / enlarged
[38] = group: developmental, developmental / developmental malformation / bone / incomplete ossification + developmental / developmental malformation / bone / knobby + …
[39] = group: maternal, reproductive / reproductive performance / resorptions / resorptions + systemic / in life observation / body weight / body weight + systemic…
[40] = group: maternal, systemic / organ weight / spleen / relative to body weight
[41] = group: maternal, reproductive / reproductive performance / estrous cycle / abnormal + reproductive / reproductive performance / estrous cycle / length
[42] = group: systemic, systemic / clinical chemistry / alkaline phosphatase (alp/alk) / alkaline phosphatase (alp/alk)
[43] = group: systemic, systemic / in life observation / body weight / body weight + systemic / in life observation / body weight / body weight gain + systemic / …
[44] = group: maternal, reproductive / reproductive performance / resorptions / resorptions
[45] = systemic / in life observation / mortality / mortality + systemic / pathology gross / stomach / ulcer + systemic / pathology gross / testes…
[46] = systemic / clinical chemistry / alanine aminotransferase (alt/sgpt) / alanine aminotransferase (alt/sgpt) + systemic / clinical chemistry / …
[47] = systemic / pathology microscopic / liver / [other] + systemic / pathology microscopic / liver / hematopoietic cell proliferation + systemic…
[48] = systemic / hematology / erythrocyte (rbc) count differential / erythrocyte (rbc)
[49] = group: developmental, developmental / developmental malformation / bone / bent + developmental / developmental malformation / bone / incomplete ossification + …
[50] = group: maternal, systemic / in life observation / body weight / body weight gain + systemic / in life observation / clinical signs / lethargy + systemic / in…
[51] = group: offspring, systemic / in life observation / body weight / offspring (pup) weight + systemic / organ weight / liver / absolute + systemic / organ weight…
[52] = group: parental, systemic / organ weight / spleen / relative to body weight
[53] = group: reproductive, reproductive / reproductive performance / fertility / fertility
[54] = group: reproductive, reproductive / reproductive performance / fertility / fertility + reproductive / offspring survival early / birth index / live birth index
[55] = systemic / organ weight / adrenal gland / absolute + systemic / organ weight / heart / absolute + systemic / organ weight / spleen / …
[56] = systemic / pathology microscopic / liver / hypertrophy
[57] = systemic / clinical chemistry / cholesterol / cholesterol + systemic / organ weight / kidney / absolute + systemic / organ weight / kidney…
[58] = systemic / organ weight / liver / absolute + systemic / organ weight / liver / relative to body weight + systemic / pathology microscopic / …
[59] = systemic / organ weight / ovary / absolute + systemic / organ weight / ovary / relative to body weight

## CCOCCO [2-Ethoxyethanol]
[1]; [24]
  LEL: 10 ppm
  NEL: < 10 ppm
[1]; [25]
  LOAEL: > 250 ppm
  NOAEL: ≥ 250 ppm
[1]; [26]
  LEL: 10 ppm
  LOAEL: > 250 ppm
  NEL: < 10 ppm
  NOAEL: ≥ 250 ppm
[2]; [27]
  LEL: 25 ppm
  NEL: < 25 ppm
[2]; [28]
  LOAEL: > 400 ppm
  NOAEL: ≥ 400 ppm
[3]; [29]
  LEL: 160 ppm
  LOAEL: > 617 ppm
  NEL: < 160 ppm
  NOAEL: ≥ 617 ppm
[3]; [30]
  LOAEL: > 617 ppm
  NOAEL: ≥ 617 ppm
[3]; [31]
  LEL: 160 ppm
  NEL: < 160 ppm
[4]; [32]
  LEL: 722 mg/kg/day
  LOAEL: > 11200 mg/kg/day
  NEL: < 722 mg/kg/day
  NOAEL: ≥ 11200 mg/kg/day
[4]; [33]
  LOAEL: 5120 mg/kg/day
  NOAEL: 2000 mg/kg/day
[4]; group: systemic, systemic / pathology microscopic / adrenal gland / hypertrophy
  LEL: 2720 mg/kg/day
[4]; group: systemic, systemic / pathology microscopic / adrenal gland / hypertrophy + systemic / in life observation / body weight / body weight gain + systemic…
  NEL: 1300 mg/kg/day
[5]; [34]
  LEL: 25 ppm
  NEL: < 25 ppm
[5]; [35]
  LOAEL: > 400 ppm
  NOAEL: ≥ 400 ppm
[6]; [36]
  LOAEL: 500 mg/kg/day
  NOAEL: < 500 mg/kg/day
[6]; [37]
  LEL: 500 mg/kg/day
  NEL: < 500 mg/kg/day
[7]
  LEL: 175 ppm
  LOAEL: > 175 ppm
  NEL: 50 ppm
  NOAEL: ≥ 175 ppm
[8]; [38]
  LEL: 202 ppm
  LOAEL: > 767 ppm
  NEL: < 202 ppm
  NOAEL: ≥ 767 ppm
[8]; [39]
  LOAEL: > 767 ppm
  NOAEL: ≥ 767 ppm
[8]; [40]
  LEL: 202 ppm
  NEL: < 202 ppm
[9]; [41]
  LEL: 804 mg/kg/day
  LOAEL: > 2060 mg/kg/day
  NEL: 466 mg/kg/day
  NOAEL: ≥ 2060 mg/kg/day
[9]; [42]
  LEL: 109 mg/kg/day
  NEL: < 109 mg/kg/day
[9]; [43]
  LOAEL: 792 mg/kg/day
  NOAEL: 400 mg/kg/day
[10]; [38]
  LEL: 150 ppm
  LOAEL: > 649 ppm
  NEL: < 150 ppm
  NOAEL: ≥ 649 ppm
[10]; [44]
  LEL: 150 ppm
  NEL: < 150 ppm
[10]; [39]
  LOAEL: > 649 ppm
  NOAEL: ≥ 649 ppm
[11]; [45]
  LOAEL: > 2000 mg/kg/day
  NEL: 500 mg/kg/day
  NOAEL: ≥ 2000 mg/kg/day
[11]; systemic / pathology gross / testes / reduced size
  LEL: 1000 mg/kg/day

## CCOC(=O)C(C)OC(=O)c1cc(Oc2ccc(C(F)(F)F)cc2Cl)ccc1[N+](=O)[O-] (stereo not drawn) [Lactofen]
[12]
  LEL: 19 mg/kg/day
  LOAEL: 19 mg/kg/day
  NEL: 2 mg/kg/day
  NOAEL: 2 mg/kg/day
[13]; [46]
  LOAEL: 143 mg/kg/day
  NOAEL: 28.6 mg/kg/day
[13]; [47]
  LEL: 5.7 mg/kg/day
  NEL: < 5.7 mg/kg/day
[14]; [46]
  LOAEL: 73.7 mg/kg/day
  NOAEL: 14.1 mg/kg/day
[14]; [48]
  LEL: 2.9 mg/kg/day
  NEL: < 2.9 mg/kg/day
[15]
  LEL: 1.4 mg/kg/day
  LOAEL: 1.4 mg/kg/day
  NEL: < 1.4 mg/kg/day
  NOAEL: < 1.4 mg/kg/day
[16]; [49]
  LEL: 150 mg/kg/day
  LOAEL: 150 mg/kg/day
  NEL: 50 mg/kg/day
  NOAEL: 50 mg/kg/day
[16]; [50]
  LEL: 150 mg/kg/day
  LOAEL: 150 mg/kg/day
  NEL: 50 mg/kg/day
  NOAEL: 50 mg/kg/day
[17]; [51]
  LEL: 26.7 mg/kg/day
  LOAEL: 26.7 mg/kg/day
  NEL: 2.7 mg/kg/day
  NOAEL: 2.7 mg/kg/day
[17]; group: parental, systemic / in life observation / mortality / mortality
  LOAEL: 32.9 mg/kg/day
[17]; group: parental, systemic / in life observation / mortality / mortality + systemic / in life observation / body weight / body weight + systemic / organ …
  NOAEL: 3.3 mg/kg/day
[17]; [52]
  LEL: 3.3 mg/kg/day
  NEL: < 3.3 mg/kg/day
[17]; [53]
  LEL: 26.7 mg/kg/day
  LOAEL: 26.7 mg/kg/day
[17]; [54]
  NEL: 2.7 mg/kg/day
  NOAEL: 2.7 mg/kg/day
[18]; [55]
  LEL: 0.79 mg/kg/day
  NEL: < 0.79 mg/kg/day
  NOAEL: 0.79 mg/kg/day
[18]; systemic / organ weight / adrenal gland / absolute + systemic / organ weight / thyroid gland / absolute
  LOAEL: 3.96 mg/kg/day

## COC(=O)c1ccccc1CS(=O)(=O)NC(=O)Nc1nc(OC)cc(OC)n1 [Bensulfuron-methyl]
[19]; [56]
  LEL: 38.9 mg/kg/day
  LOAEL: 387 mg/kg/day
  NEL: < 38.9 mg/kg/day
[19]; systemic / pathology microscopic / liver / hypertrophy + systemic / organ weight / liver / absolute + systemic / organ weight / liver / …
  NOAEL: 132 mg/kg/day
[20]; [57]
  LOAEL: 474 mg/kg/day
  NOAEL: 93 mg/kg/day
[20]; [58]
  LEL: 7.5 mg/kg/day
  NEL: < 7.5 mg/kg/day
[21]; [46]
  LOAEL: 223 mg/kg/day
  NEL: 1.4 mg/kg/day
  NOAEL: 19.9 mg/kg/day
[21]; [27]
  LEL: 19.9 mg/kg/day
[22]
  LEL: 455 mg/kg/day
  LOAEL: 455 mg/kg/day
  NEL: 226 mg/kg/day
  NOAEL: 226 mg/kg/day
[23]; [46]
  LOAEL: 340 mg/kg/day
  NOAEL: 32.1 mg/kg/day
[23]; [59]
  LEL: 3.5 mg/kg/day
  NEL: < 3.5 mg/kg/day
